From ChEMBL document CHEMBL3856280, “Targeting the HSP60/10 chaperonin systems of Trypanosoma brucei as a strategy for treating African sleeping sickness” (Bioorg Med Chem Lett, 2016)

Assays:
E. coli GroEL/ES [1] = biological target: T1, E. coli GroEL/ES (Escherichia coli, UniProt P0A6F5); test: Inhibition of Escherichia coli GroEL/GroES-ATPase activity expressed in Escherichia coli DH5alpha/BL21 (DE3) assessed as inhibition of denatured MDH refolding preincubated for 10 mins followed by ATP addition measured after 20 to 40 mins by malachite green dye based fluorescence assay
T1 sequence (P0A6F5 whole entry, looked up): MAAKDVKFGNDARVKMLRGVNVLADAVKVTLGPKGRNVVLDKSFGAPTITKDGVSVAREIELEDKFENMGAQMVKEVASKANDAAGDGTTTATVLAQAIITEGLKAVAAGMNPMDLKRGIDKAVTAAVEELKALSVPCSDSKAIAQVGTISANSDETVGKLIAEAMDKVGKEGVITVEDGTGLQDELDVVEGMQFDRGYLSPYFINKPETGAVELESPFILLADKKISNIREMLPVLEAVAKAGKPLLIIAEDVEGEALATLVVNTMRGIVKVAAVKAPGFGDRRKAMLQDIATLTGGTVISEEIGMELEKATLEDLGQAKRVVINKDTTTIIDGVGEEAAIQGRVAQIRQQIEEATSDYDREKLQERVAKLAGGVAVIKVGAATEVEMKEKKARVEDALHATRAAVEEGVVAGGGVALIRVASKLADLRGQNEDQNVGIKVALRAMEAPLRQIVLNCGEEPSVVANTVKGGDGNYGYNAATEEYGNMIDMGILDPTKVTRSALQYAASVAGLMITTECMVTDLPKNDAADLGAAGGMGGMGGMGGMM

[2] = Inhibition of pig heart native MDH reporter reaction after 20 to 40 mins by fluorescence based assay; set-up: species or system Sus scrofa
E. coli GroEL/ES [3] = biological target: T1, E. coli GroEL/ES; test: Inhibition of Escherichia coli GroEL/GroES expressed in Escherichia coli DH5alpha/BL21 (DE3) assessed as inhibition of denatured MDH refolding preincubated for 10 mins followed by ATP addition measured after 20 to 40 mins by fluorescence based assay
[4] = Cytotoxicity against human THLE3 cells assessed as reduction in cell viability after 48 hrs by alamar blue assay; assay type: toxicity, cell-based
HSP60/HSP10 [5] = biological target: T2, HSP60/HSP10 (Homo sapiens, UniProt P10809); test: Inhibition of human mitochondrial HSP60/HSP10 expressed in Escherichia coli DH5alpha/BL21 (DE3) assessed as inhibition of denatured MDH refolding preincubated for 10 mins followed by ATP addition measured after 40 to 60 mins by fluorescence based assay
T2 sequence (P10809 whole entry): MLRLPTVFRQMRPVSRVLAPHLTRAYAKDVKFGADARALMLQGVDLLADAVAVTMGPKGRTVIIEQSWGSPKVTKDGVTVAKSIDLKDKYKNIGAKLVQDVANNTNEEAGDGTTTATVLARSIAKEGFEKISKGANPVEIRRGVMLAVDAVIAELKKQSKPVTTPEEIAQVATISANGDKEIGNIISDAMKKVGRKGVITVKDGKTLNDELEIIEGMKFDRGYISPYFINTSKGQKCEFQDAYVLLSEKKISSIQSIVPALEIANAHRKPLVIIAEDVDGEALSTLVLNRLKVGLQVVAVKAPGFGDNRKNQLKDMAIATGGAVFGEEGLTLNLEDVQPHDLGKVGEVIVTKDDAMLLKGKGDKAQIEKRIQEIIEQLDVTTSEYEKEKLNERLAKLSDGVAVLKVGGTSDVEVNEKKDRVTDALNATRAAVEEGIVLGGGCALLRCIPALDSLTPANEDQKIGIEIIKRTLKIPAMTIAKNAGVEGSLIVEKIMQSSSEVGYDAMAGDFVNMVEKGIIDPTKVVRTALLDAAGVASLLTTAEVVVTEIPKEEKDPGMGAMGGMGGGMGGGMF
T2 sequence (P61604 whole entry, further chain): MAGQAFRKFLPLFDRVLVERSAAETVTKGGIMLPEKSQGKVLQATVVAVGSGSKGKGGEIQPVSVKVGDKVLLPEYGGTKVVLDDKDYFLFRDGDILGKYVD

[6] = Cytotoxicity against HEK293 cells assessed as reduction in cell viability after 48 hrs by alamar blue assay; assay type: toxicity, cell-based; settings: human
HSP60/HSP10 [7] = biological target: T2, HSP60/HSP10; test: Inhibition of human mitochondrial HSP60/HSP10-ATPase activity expressed in Escherichia coli DH5alpha/BL21 (DE3) assessed as inhibition of denatured MDH refolding preincubated for 10 mins followed by ATP addition measured after 40 to 60 mins by malachite green dye based fluorescence assay
[8] = test system: Trypanosoma brucei brucei; test: Antitrypanosomal activity against Trypanosoma brucei brucei Lister 427 VSG 221 [TetR T7RNAP] transgenic bloodstream forms assessed as reduction in cell viability after 48 hrs by alamar blue assay; assay type: functional; settings: Lister 427 VSG 221, 48 h

Row | Structure (SMILES) | IC50 (E. coli GroEL/ES [1]) [µM] | IC50 [2] [µM] | IC50 (E. coli GroEL/ES [3]) [µM] | EC50 at 48 h [4] [µM] | IC50 (HSP60/HSP10 [5]) [µM] | EC50 at 48 h [6] [µM] | IC50 (HSP60/HSP10 [7]) [µM] | EC50 [8] [µM]
1 | Cc1cccc(S(=O)(=O)Nc2ccc(-c3nc4cc(NS(=O)(=O)c5cccc(C)c5)ccc4o3)cc2)c1 | > 250 | > 63 | 35 | 18 | > 100 | 65 | > 250 | 4.9
2 | O=S(=O)(Nc1ccc(-c2nc3cc(NS(=O)(=O)c4cccc(F)c4)ccc3o2)cc1)c1cccc(F)c1 | 5.1 | > 63 | 5.3 | 20 | 68 | 24 | > 250 | 10
3 | O=S(=O)(Nc1ccc(-c2nc3cc(NS(=O)(=O)c4ccccc4C(F)(F)F)ccc3o2)cc1)c1ccccc1C(F)(F)F | 21 | > 63 | 25 | 50 | > 100 | 66 | > 250 | 28
4 | O=S(=O)(Nc1ccc(-c2nc3cc(NS(=O)(=O)c4cccc(Cl)c4)ccc3o2)cc1)c1cccc(Cl)c1 | > 250 | > 63 | 18 | 17 | > 100 | 21 | > 250 | 4.5
5 | N#Cc1ccc(S(=O)(=O)Nc2ccc(-c3nc4cc(NS(=O)(=O)c5ccc(C#N)cc5)ccc4o3)cc2)cc1 | > 250 | > 63 | 37 | 79 | 64 | 45 | > 250 | 16
6 | O=S(=O)(Nc1ccc(-c2nc3cc(NS(=O)(=O)c4ccc(C(F)(F)F)cc4)ccc3o2)cc1)c1ccc(C(F)(F)F)cc1 | > 250 | > 63 | 35 | 21 | 61 | > 100 | > 250 | 4.1
7 | O=S(=O)(Nc1ccc(-c2nc3cc(NS(=O)(=O)c4ccc(F)cc4)ccc3o2)cc1)c1ccc(F)cc1 | 4.3 | > 63 | 3.8 | 19 | > 100 | 21 | > 250 | 4.3
8 | N#Cc1ccccc1S(=O)(=O)Nc1ccc(-c2nc3cc(NS(=O)(=O)c4ccccc4C#N)ccc3o2)cc1 | > 250 | > 63 | 32 | 93 | 86 | 74 | 193 | 23
9 | COc1cccc(S(=O)(=O)Nc2ccc(-c3nc4cc(NS(=O)(=O)c5cccc(OC)c5)ccc4o3)cc2)c1 | > 250 | > 63 | 48 | 15 | > 100 | 28 | > 250 | 5.1
10 | O=S(=O)(Nc1ccc(-c2nc3cc(NS(=O)(=O)c4ccccc4F)ccc3o2)cc1)c1ccccc1F | > 250 | > 63 | 22 | 55 | 77 | 31 | > 250 | 19
11 | O=[N+]([O-])c1cccc(S(=O)(=O)Nc2ccc(-c3nc4cc(NS(=O)(=O)c5cccc([N+](=O)[O-])c5)ccc4o3)cc2)c1 | > 250 | > 63 | 11 | 37 | 60 | 46 | > 250 | 11
12 | COC(=O)c1cccc(S(=O)(=O)Nc2ccc(-c3nc4cc(NS(=O)(=O)c5cccc(C(=O)OC)c5)ccc4o3)cc2)c1 | > 250 | > 63 | 11 | 49 | 95 | > 100 | > 250 | > 42
13 | N#Cc1cccc(S(=O)(=O)Nc2ccc(-c3nc4cc(NS(=O)(=O)c5cccc(C#N)c5)ccc4o3)cc2)c1 | 4.1 | > 63 | 7.6 | 91 | 91 | 45 | > 250 | 39
14 | O=S(=O)(Nc1ccc(-c2nc3cc(NS(=O)(=O)c4cccc(O)c4)ccc3o2)cc1)c1cccc(O)c1 | 0.79 | 47 | 0.9 | 37 | 19 | 36 | 61 | 8.9
